The results in this text go back to PubChem BioAssay (NCI).

Molecules are shown by their SMILES.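 Tested at 5 concentrations; 48 h exposure; 96-well plates; endpoints linearly interpolated, else capped at highest concentration. At the TGI there is no net growth.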

Some test systems named below: U251 CNS; SK-OV-3 ovarian; COLO 205 colon; A498 renal; CCRF-CEM leukemia; TK-10 renal; HCC-2998 colon; OVCAR-5 ovarian; OVCAR-8 ovarian; HT29 colon; HL-60(TB) leukemia; CAKI-1 renal; K-562 leukemia; HOP-92 NSCLC; HCT-15 colon; NCI-H460 lung; DU-145 prostate; NCI/ADR-RES ovarian.
Experiment in all cases: inhibition of tumour cell growth, NCI panel, 48 h

For the compound `C[n+]1ccc(-c2cc[n+](C)cc2)cc1`, the TGI in the test with U251 CNS was over 70.9 µM; in the test on SK-OV-3 ovarian it was over 100 µM; in the test with COLO 205 colon it was over 38.3 µM; with A498 renal, over 50.3 µM; in the test with CCRF-CEM leukemia, over 100 µM; in the test on TK-10 renal, over 100 µM. Further, the TGI in the test on HCC-2998 colon is 97.8 µM; in the test with OVCAR-5 ovarian it was 37.9 µM; in the test with OVCAR-8 ovarian, over 100 µM; with HT29 colon, over 81.9 µM; in the test with HL-60(TB) leukemia it was 24.8 µM; with CAKI-1 renal it was over 100 µM. For the same compound, the TGI is over 100 µM in the test on K-562 leukemia, over 63.6 µM with HOP-92 NSCLC, over 52.3 µM with HCT-15 colon and over 33.5 µM in the test on NCI-H460 lung.

In the case of `CC(C)=CCC[C@](C)(O[C@@H]1O[C@H](CO)[C@@H](O)[C@H](O)[C@H]1O)[C@H]1CC[C@]2(C)[C@@H]1[C@H](O)C[C@@H]1[C@@]3(C)CC[C@H](O)C(C)(C)[C@@H]3[C@@H](O[C@@H]3O[C@H](CO)[C@@H](O)[C@H](O)[C@H]3O)C[C@]12C`, the TGI with U251 CNS, in the test with DU-145 prostate, with SK-OV-3 ovarian, in the test with COLO 205 colon, with A498 renal and in the test with CCRF-CEM leukemia was over 100 µM each time. In addition, the TGI in the test on TK-10 renal, in the test on HCC-2998 colon, in the test on OVCAR-5 ovarian, with OVCAR-8 ovarian, in the test on HT29 colon and with HL-60(TB) leukemia was over 100 µM throughout. Also, the TGI in the test on CAKI-1 renal, in the test with K-562 leukemia, in the test on HOP-92 NSCLC, in the test with HCT-15 colon and in the test with NCI-H460 lung was over 100 µM each time.

In the case of `COc1c(C)c(C/C=C(\C)CCCCO)c(OC)c(OC)c1OC`, the TGI in the test on U251 CNS, with DU-145 prostate, with SK-OV-3 ovarian, with COLO 205 colon, with NCI/ADR-RES ovarian and in the test with CCRF-CEM leukemia was over 100 µM each time. Further, the TGI in the test on TK-10 renal, in the test with OVCAR-5 ovarian, with OVCAR-8 ovarian, with HT29 colon, in the test on K-562 leukemia and in the test on HOP-92 NSCLC was over 100 µM throughout. The TGI in the test on HCT-15 colon was over 100 µM; in the test with NCI-H460 lung, 35.1 µM.

As to `CN1C(=O)[C@@H]2N(CSC2(C)C)C1=S`, the TGI in the test with U251 CNS, with DU-145 prostate, in the test on SK-OV-3 ovarian, with COLO 205 colon, with A498 renal and with NCI/ADR-RES ovarian was over 100 µM throughout. The TGI in the test on TK-10 renal, in the test on HCC-2998 colon, with OVCAR-5 ovarian, with OVCAR-8 ovarian, in the test on HT29 colon and in the test with CAKI-1 renal was over 100 µM each time. For the same compound, the TGI in the test on K-562 leukemia, with HOP-92 NSCLC, in the test with HCT-15 colon and in the test on NCI-H460 lung was over 100 µM throughout.

In the case of `COc1ccc2c(c1)CCCN1Cc3cc(OC)c(OC)cc3CC21` (stereo unspecified), the TGI in the test with U251 CNS, in the test with DU-145 prostate, in the test on SK-OV-3 ovarian, with COLO 205 colon, in the test with NCI/ADR-RES ovarian and in the test on CCRF-CEM leukemia was over 100 µM in each case. The TGI in the test with TK-10 renal, in the test with HCC-2998 colon, in the test on OVCAR-5 ovarian, with OVCAR-8 ovarian, in the test on HT29 colon and in the test on CAKI-1 renal was over 100 µM in each case. The TGI in the test with K-562 leukemia, with HOP-92 NSCLC, in the test with HCT-15 colon and with NCI-H460 lung was over 100 µM in each case.

As for `Cc1ccsc1C(=O)C(CC(=O)c1cccs1)c1ccsc1` (stereo unspecified), the TGI with U251 CNS, with DU-145 prostate, with SK-OV-3 ovarian, in the test with COLO 205 colon, in the test on A498 renal and in the test on NCI/ADR-RES ovarian was over 100 µM each time. In addition, the TGI in the test on CCRF-CEM leukemia, in the test with TK-10 renal, in the test on HCC-2998 colon, with OVCAR-5 ovarian, with OVCAR-8 ovarian and in the test with HT29 colon was over 100 µM throughout. The TGI in the test on CAKI-1 renal, in the test on K-562 leukemia, with HOP-92 NSCLC, in the test with HCT-15 colon and with NCI-H460 lung was over 100 µM each time.

Consider `Cc1cc(N(CCCCl)CCCCl)ccc1C=Nc1cccc(Cl)c1`, for which the TGI in the test on U251 CNS came to 32.2 µM; in the test with DU-145 prostate it was 27.9 µM; with SK-OV-3 ovarian, 61.7 µM; in the test on COLO 205 colon, 23.6 µM; in the test on NCI/ADR-RES ovarian it was 33.4 µM; in the test with TK-10 renal it was 27.5 µM. Moreover, the TGI was 12.6 µM in the test with OVCAR-5 ovarian; 24.3 µM with OVCAR-8 ovarian; 27.7 µM with HT29 colon; 38 µM in the test on HL-60(TB) leukemia; 22.7 µM with K-562 leukemia; 30.2 µM with HCT-15 colon. In addition, the TGI in the test with NCI-H460 lung stood at 22.6 µM.

`Cc1ccc2c(c1)SC(c1cc3c(cc1Br)OCO3)S2` (stereo unspecified): the TGI in the test on U251 CNS, in the test on SK-OV-3 ovarian, with COLO 205 colon, in the test with A498 renal, with CCRF-CEM leukemia and in the test on TK-10 renal was over 31.6 µM throughout. The TGI is over 31.6 µM with HCC-2998 colon; over 31.6 µM in the test on OVCAR-5 ovarian; over 31.6 µM in the test with OVCAR-8 ovarian; over 31.6 µM in the test with HT29 colon; over 31.6 µM in the test on HL-60(TB) leukemia; over 100 µM in the test on CAKI-1 renal. In addition, the TGI in the test on K-562 leukemia, with HOP-92 NSCLC, in the test on HCT-15 colon and with NCI-H460 lung was over 31.6 µM throughout.

In the case of `Nc1ccc2cc3[nH]c4cc(N)ccc4c3nc2c1`, the TGI in the test on U251 CNS came to 2.37 µM; with DU-145 prostate, 2.4 µM; in the test on SK-OV-3 ovarian it was 2.03 µM; in the test on COLO 205 colon it was 1.27 µM; in the test on A498 renal, 1.24 µM; in the test with NCI/ADR-RES ovarian it was 2.34 µM. Moreover, the TGI in the test with TK-10 renal turned out to be 7.98 µM; with HCC-2998 colon it was 0.976 µM; with OVCAR-5 ovarian, 1.83 µM; with OVCAR-8 ovarian, 1.69 µM; in the test on HT29 colon, 1.48 µM; with CAKI-1 renal, 0.636 µM. Further, the TGI is over 22.6 µM in the test with K-562 leukemia, 0.737 µM in the test with HOP-92 NSCLC, 1.47 µM in the test on HCT-15 colon and 0.548 µM in the test on NCI-H460 lung.
